pIC50: −log10 of the molar value. Counter-ions that a name gives are not always drawn. Like-named read-outs stand apart in the source and are kept apart here.
What was measured:
[1] = molecular target: T1, Salmonella typhimurium tryptophan synthase holoenzyme (α2β2), TSα reaction (Salmonella typhimurium, UniProt P00929); assay: Inhibition of tryptophan synthase by the TSα reaction, microtiter kinetic coupled enzyme assay; type: biochemical
T1 construct: made in house; host or cells: E. coli strain CB149pSTB7
T1 sequence (P00929 whole entry): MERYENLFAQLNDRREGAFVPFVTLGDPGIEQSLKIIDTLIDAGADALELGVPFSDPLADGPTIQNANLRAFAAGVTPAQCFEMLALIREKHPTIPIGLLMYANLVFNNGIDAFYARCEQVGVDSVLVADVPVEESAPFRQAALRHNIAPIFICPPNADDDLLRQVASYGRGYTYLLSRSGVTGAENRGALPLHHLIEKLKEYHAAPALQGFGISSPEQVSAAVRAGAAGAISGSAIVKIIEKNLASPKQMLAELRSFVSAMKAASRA
T1 sequence (P0A2K1 2-397, further chain): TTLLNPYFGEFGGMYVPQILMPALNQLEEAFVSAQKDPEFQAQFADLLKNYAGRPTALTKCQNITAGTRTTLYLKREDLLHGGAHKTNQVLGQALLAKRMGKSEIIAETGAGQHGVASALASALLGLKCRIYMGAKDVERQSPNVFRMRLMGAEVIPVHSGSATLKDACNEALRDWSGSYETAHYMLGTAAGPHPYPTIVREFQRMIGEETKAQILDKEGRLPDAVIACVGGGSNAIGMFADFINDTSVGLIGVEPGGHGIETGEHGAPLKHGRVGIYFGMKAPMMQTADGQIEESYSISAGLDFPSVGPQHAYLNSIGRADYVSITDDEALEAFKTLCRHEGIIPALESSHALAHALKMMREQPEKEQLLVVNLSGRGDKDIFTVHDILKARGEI
Text: Inhibitors of TS were identified by their ability to inhibit the production of glyceraldehyde-3-P by the TSα reaction of the Salmonella typhimurium holoenzyme (α2β2) in the presence of a limiting amount of indole-3-glycerolphosphate and an excess of serine
The assay was developed as a new microtiter plate kinetic enzyme assay based on the combined methods of Creighton (EurJBch 13:1-10, 1970) and Creighton and Yanofsky (JBC 241:980, 1966) with modifications. The rate of glyceraldehyde production was measured as the linear […] (spectrophotometric absorbance at 340 nm) in the presence of glyceraldehyde-3-phosphate dehydrogenase in a coupled enzyme assay.
The assay solution contained a test inhibitor compound, 50 mM Tris-Cl (pH 7.8), 6 mM sodium arsenate, 5 μg/ml pyridoxal phosphate, 0.5 mM DTT, 0.18M NaCl, 60 mM serine, 1.6 mM NAD+, 8 e.u./ml yeast glyceraldehyde-3-phosphate dehydrogenase (Sigma, Catalog #G2647; Kirschner et al., Eur J Bch, 1975, 60:513 and approximately 1.5 e.u. Salmonella TS. 100 μM IGP was added to start the reaction, which was run at 37° C. and using 300 μl per assay in a microtiter plate.
The substrate IGP was used at 1.5 to 2 times its Km concentration to enhance the likelihood of identifying weak inhibitors, binding at the substrate binding site. This approach to identifying enzyme inhibitors was novel, since an excess of all substrates, (at least 5-times the Km value of each), is conventionally used in the measurement of enzyme activity.
Potential inhibitors were evaluated by adding 100 μM inhibitor (equimolar to substrate IGP):or less, in a 1:1 dilution series down from 100 μM, until the inhibition measured was less than 15%. Reaction rates at Vmax were compared in the presence and absence of inhibitors.
In addition, some weaker inhibitors were identified following preincubation of the inhibitor with the TS assay mix for 24 hrs prior to the addition of IGP. The identifying weaker inhibitors is to aid in a quantitative structure activity relationship (QSAR) evaluation, or to identify new herbicidal inhibitor leads. The previously known inhibitor IPP was used as a standard in all tests, where the I50 for IPP was 1-2 uM.

Arabidopsis thaliana = assay: Herbicidal activity and tryptophan reversal on Arabidopsis grown on agar medium; type: in vivo; parameters: key: 0 - no effect; 9 - total kill; C - chlorotic seedlings 4-6 days after treatment
Procedure: In this experiment, TS inhibitors were tested on Arabidopsis thaliana grown Murashige minimal organics medium, (obtained from Life Technologies, Grand Island, N.Y.), containing 0.7% agar. Compounds were tested at different concentrations to assess their herbicidal activity.

Arabidopsis TS enzyme = molecular target: T2, Arabidopsis TS enzyme (Arabidopsis thaliana, UniProt Q42529); assay: TSα assay with recombinant plant TSα and TSβ expressed in E. coli; type: biochemical; settings: inhibitor 82 uM; pAC 758 (1.5 ug) + pAC 755 (3 ug)
T2 construct: GST (N, cleaved yes); made in house; host or cells: E. coli DH5α (pGEX-2T constructs)
T2 sequence (Q42529 with tags, fused parts or gaps): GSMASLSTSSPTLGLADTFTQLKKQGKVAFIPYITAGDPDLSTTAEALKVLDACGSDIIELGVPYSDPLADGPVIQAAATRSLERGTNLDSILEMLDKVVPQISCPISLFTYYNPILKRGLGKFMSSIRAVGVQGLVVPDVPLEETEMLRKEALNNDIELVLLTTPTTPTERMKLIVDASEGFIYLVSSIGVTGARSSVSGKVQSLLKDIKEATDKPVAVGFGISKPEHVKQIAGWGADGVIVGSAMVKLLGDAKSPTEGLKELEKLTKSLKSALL
T2 sequence (P14671 with tags, fused parts or gaps partner): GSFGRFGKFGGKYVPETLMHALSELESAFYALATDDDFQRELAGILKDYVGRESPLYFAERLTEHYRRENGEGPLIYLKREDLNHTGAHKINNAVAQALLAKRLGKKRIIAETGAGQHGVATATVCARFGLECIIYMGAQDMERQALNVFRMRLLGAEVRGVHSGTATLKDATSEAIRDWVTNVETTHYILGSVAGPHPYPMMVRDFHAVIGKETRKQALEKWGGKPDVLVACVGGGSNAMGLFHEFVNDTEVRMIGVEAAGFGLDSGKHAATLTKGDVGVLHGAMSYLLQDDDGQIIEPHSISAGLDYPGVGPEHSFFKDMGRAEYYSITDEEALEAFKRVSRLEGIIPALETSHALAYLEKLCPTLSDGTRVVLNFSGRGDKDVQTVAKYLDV
Procedure: The plant TS proteins were expressed as fusion proteins with glutathione transferase (GST) to facilitate purification. After purification, the GST protein was cleaved off with thrombin as described above before the plant TS assays were performed. After thrombin cleavage, both TSα and TSβ-subunit proteins retained a Gly-Ser residue on the N-terminal of the protein in addition to the TS sequence. […]
The TSα enzyme assay was conducted as described in Example 3 for Salmonella TSα.
Specifically, phenylthiophosphonic acid compounds were used. The TSα assay conditions were as described for Salmonella TSα in Example 3 except that recombinant plant proteins were used instead of the Salmonella enzyme.

[2] = TSα reaction, Salmonella holoenzyme, 30 min at 37° C., 100 μM IGP, read-out: TS inhibition I50

With `CP(=O)(O)CCCCSc1ccccc1N` [Phosphinic acid, {4-[(o-aminophenyl)thio]butyl}methyl-] the pIC50 [1, 2] was 4.00.

“Phosphonic acid, {4-[(o-hydroxyphenyl)thio]butyl}-,aryl-butyrate (ester)” was tested, and the herbicidal rating (Arabidopsis thaliana; herbicide 7.8 mM + 100 μM Trp) was 1, the herbicidal rating (Arabidopsis thaliana; herbicide 7.8 mM, no Trp) was 5 and the herbicidal rating (Arabidopsis thaliana; herbicide 16 mM + 100 μM Trp) was 1. For the same compound, the herbicidal rating (Arabidopsis thaliana; herbicide 16 mM, no Trp) was 6, the herbicidal rating (Arabidopsis thaliana; herbicide 31 mM + 100 μM Trp) was 1 and the herbicidal rating (Arabidopsis thaliana; herbicide 31 mM, no Trp) was 6. The herbicidal rating (Arabidopsis thaliana; herbicide 63 mM + 100 μM Trp) was 3, the herbicidal rating (Arabidopsis thaliana; herbicide 63 mM, no Trp) was 7 and the herbicidal rating (Arabidopsis thaliana; herbicide 125 mM + 100 μM Trp) was 5. It also gave a herbicidal rating (Arabidopsis thaliana; herbicide 125 mM, no Trp) of 7, a herbicidal rating (Arabidopsis thaliana; herbicide 250 mM + 100 μM Trp) of 5 and a herbicidal rating (Arabidopsis thaliana; herbicide 250 mM, no Trp) of 7. The herbicidal rating (Arabidopsis thaliana; herbicide 500 mM + 100 μM Trp) was 3, the herbicidal rating (Arabidopsis thaliana; herbicide 500 mM, no Trp) was 7 and the herbicidal rating (Arabidopsis thaliana; herbicide 1000 mM + 100 μM Trp) was 3. For the same compound, the herbicidal rating (Arabidopsis thaliana; herbicide 1000 mM, no Trp) was 7, the “TSα activity, % of control” value (Arabidopsis TS enzyme) was 2.1 % of control and the “TSα activity, relative Vmax” value (Arabidopsis TS enzyme) was 0.133 mOD/min.

With `O=P(O)(O)CC=CCSc1ccccc1O` [Phosphonic acid, {4-[(o-hydroxyphenyl)thio]-2-butenyl}-] the “TSα activity, % of control” value (Arabidopsis TS enzyme) was 14.7 % of control and the “TSα activity, relative Vmax” value (Arabidopsis TS enzyme) was 0.909 mOD/min.

`CCOP(=O)(CCCCSc1ccccc1O)OCC` [Phosphonic acid, {4-[(o-hydroxyphenyl)thio]butyl}-, diethyl ester] gave a herbicidal injury rating (Arabidopsis thaliana; herbicide 7.8 μM) of 0, a herbicidal injury rating (Arabidopsis thaliana; herbicide 16 μM) of 1 and a herbicidal injury rating (Arabidopsis thaliana; herbicide 31 μM) of 3. It also gave a herbicidal injury rating (Arabidopsis thaliana; herbicide 63 μM) of 5, a herbicidal injury rating (Arabidopsis thaliana; herbicide 125 μM) of 6 and a herbicidal injury rating (Arabidopsis thaliana; herbicide 250 μM) of 7. It also gave a herbicidal injury rating (Arabidopsis thaliana; herbicide 500 μM) of 8 and a herbicidal injury rating (Arabidopsis thaliana; herbicide 1000 μM) of 9.

In the case of `NC1CCCCC1.NC1CCCCC1.O=P(O)(O)CCCC[S+]([O-])c1ccccc1O` (stereo not drawn) [Phosphonic acid, {4-[(o-hydroxyphenyl)sulfinyl]butyl}-, with cyclohexylamine (1:2)], the herbicidal rating (Arabidopsis thaliana; herbicide 7.8 mM + 100 μM Trp) was 0, the herbicidal rating (Arabidopsis thaliana; herbicide 7.8 mM, no Trp) was 5 and the herbicidal rating (Arabidopsis thaliana; herbicide 16 mM + 100 μM Trp) was 0. The herbicidal rating (Arabidopsis thaliana; herbicide 16 mM, no Trp) was 6, the herbicidal rating (Arabidopsis thaliana; herbicide 31 mM + 100 μM Trp) was 3 and the herbicidal rating (Arabidopsis thaliana; herbicide 31 mM, no Trp) was 6. The herbicidal rating (Arabidopsis thaliana; herbicide 63 mM + 100 μM Trp) was 5, the herbicidal rating (Arabidopsis thaliana; herbicide 63 mM, no Trp) was 6 and the herbicidal rating (Arabidopsis thaliana; herbicide 125 mM + 100 μM Trp) was 5. For the same compound, the herbicidal rating (Arabidopsis thaliana; herbicide 125 mM, no Trp) was 6, the herbicidal rating (Arabidopsis thaliana; herbicide 250 mM + 100 μM Trp) was 5 and the herbicidal rating (Arabidopsis thaliana; herbicide 250 mM, no Trp) was 7Y. It also gave a herbicidal rating (Arabidopsis thaliana; herbicide 500 mM + 100 μM Trp) of 5, a herbicidal rating (Arabidopsis thaliana; herbicide 500 mM, no Trp) of 7Y and a herbicidal rating (Arabidopsis thaliana; herbicide 1000 mM + 100 μM Trp) of 5. For the same compound, the herbicidal rating (Arabidopsis thaliana; herbicide 1000 mM, no Trp) was 8.

Compound `Nc1cccnc1SCCCCP(=O)(O)O` [Phosphonic acid, {4-[3-amino-2-phridyl)thio]butyl}-] has a pIC50 [1, 2] of 5.30.

With `Nc1ccccc1SCC=CCP(=O)(O)O` [Phosphonic acid, {4-[(o-aminophenyl)thio]-2-butenyl}-] the pIC50 [1, 2] was 6.60, the “Enzyme activity, % of control” value ([1]; inhibitor 100 nM) was 70.7 % of control and the “Enzyme activity, % of control” value ([1]; inhibitor 300 nM) was 43.4 % of control. The “Enzyme activity, % of control” value ([1]; inhibitor 1000 nM) was 25.3 % of control, the “Enzyme activity, % of control” value ([1]; inhibitor 3000 nM) was 13.8 % of control and the “Enzyme activity, % of control” value ([1]; inhibitor 10000 nM) was 4.5 % of control.

`Nc1ccc(Cl)cc1SCCCCP(=O)(O)O` [Phosphonic acid, {4-[(2-amino-5-chlorophenyl)thio]butyl}-] gave a herbicidal injury rating (Arabidopsis thaliana; herbicide 7.8 μM) of 0, a herbicidal injury rating (Arabidopsis thaliana; herbicide 16 μM) of 1 and a herbicidal injury rating (Arabidopsis thaliana; herbicide 31 μM) of 1. For the same compound, the herbicidal injury rating (Arabidopsis thaliana; herbicide 63 μM) was 1, the herbicidal injury rating (Arabidopsis thaliana; herbicide 125 μM) was 3 and the herbicidal injury rating (Arabidopsis thaliana; herbicide 250 μM) was 3. For the same compound, the herbicidal injury rating (Arabidopsis thaliana; herbicide 500 μM) was 3 and the herbicidal injury rating (Arabidopsis thaliana; herbicide 1000 μM) was 3.

`CCOP(=O)(CCCCSc1cc(Cl)ccc1N)OCC` [Phosphonic acid, {4-[(2-amino-5-chlorophenyl)thio]butyl}-, diethyl ester] was tested, and the herbicidal injury rating (Arabidopsis thaliana; herbicide 16 μM) was 0, the herbicidal injury rating (Arabidopsis thaliana; herbicide 31 μM) was 1 and the herbicidal injury rating (Arabidopsis thaliana; herbicide 63 μM) was 1. The herbicidal injury rating (Arabidopsis thaliana; herbicide 125 μM) was 3, the herbicidal injury rating (Arabidopsis thaliana; herbicide 250 μM) was 5 and the herbicidal injury rating (Arabidopsis thaliana; herbicide 500 μM) was 6. It also gave a herbicidal injury rating (Arabidopsis thaliana; herbicide 1000 μM) of 7.

`Nc1ccccc1SCCCCP(=O)(O)O` [Phosphonic acid, {4-[(o-aminophenyl)thio]butyl}-, dilithium salt] showed a pIC50 [1, 2] of 6.40.

For `O=P(O)(O)CCCCS(=O)(=O)c1ccccc1O` [Compound 33, Phosphonic acid, {4-[(o-hydroxyphenyl)sulfonyl]butyl}-], the pIC50 ([1]; I50 TS, TSα reaction of Salmonella holoenzyme) was 6.44, the “TSα activity, % of control” value (Arabidopsis TS enzyme) was 2.4 % of control and the “TSα activity, relative Vmax” value (Arabidopsis TS enzyme) was 0.150 mOD/min.

`Nc1ccc(Br)cc1SCCCCP(=O)(O)O` [Phosphonic acid, {4-[2-amino-5-bromophenyl)thio]butyl}-] was tested, and the pIC50 ([1]; TS inhibition I50, TSα reaction, Salmonella holoenzyme, 30 min at 37° C., 100 μM IGP) was 7.15, the “Enzyme activity, % of control” value ([1]; inhibitor 30 nM) was 70.5 % of control and the “Enzyme activity, % of control” value ([1]; inhibitor 100 nM) was 38.5 % of control. The “Enzyme activity, % of control” value ([1]; inhibitor 300 nM) was 24.7 % of control, the “Enzyme activity, % of control” value ([1]; inhibitor 1000 nM) was 8.7 % of control and the herbicidal injury rating (Arabidopsis thaliana; herbicide 7.8 μM) was 1. For the same compound, the herbicidal injury rating (Arabidopsis thaliana; herbicide 16 μM) was 1, the herbicidal injury rating (Arabidopsis thaliana; herbicide 31 μM) was 2 and the herbicidal injury rating (Arabidopsis thaliana; herbicide 63 μM) was 3. For the same compound, the herbicidal injury rating (Arabidopsis thaliana; herbicide 125 μM) was 3, the herbicidal injury rating (Arabidopsis thaliana; herbicide 250 μM) was 4 and the herbicidal injury rating (Arabidopsis thaliana; herbicide 500 μM) was 4. It also gave a herbicidal injury rating (Arabidopsis thaliana; herbicide 1000 μM) of 4.

In the case of `Nc1cc(C(F)(F)F)ccc1SCCCCP(=O)(O)O` [Phosphonic acid, {4-[(2-amino-alpha,alpha,alpha-trifluoro-p-tolyl)thio]butyl}-], the pIC50 [1, 2] was 5.15.

In the case of `CCOP(=O)(CCCCSc1cc(Br)ccc1N)OCC` [Phosphonic acid, {4-[2-amino-5-bromophenyl)thio]butyl}-, diethyl ester], the herbicidal injury rating (Arabidopsis thaliana; herbicide 7.8 μM) was 1, the herbicidal injury rating (Arabidopsis thaliana; herbicide 16 μM) was 1 and the herbicidal injury rating (Arabidopsis thaliana; herbicide 31 μM) was 1. The herbicidal injury rating (Arabidopsis thaliana; herbicide 63 μM) was 1, the herbicidal injury rating (Arabidopsis thaliana; herbicide 125 μM) was 4 and the herbicidal injury rating (Arabidopsis thaliana; herbicide 250 μM) was 5. It also gave a herbicidal injury rating (Arabidopsis thaliana; herbicide 500 μM) of 6 and a herbicidal injury rating (Arabidopsis thaliana; herbicide 1000 μM) of 8.

Source: patent US20050050594A1, “Tryptophan synthase as a site of herbicide action” (priority 1999, published 2005)
